Assay results: the NIST ThermoML archive (doi:10.1021/je020195l)

Experiments:
[1] = excess molar enthalpy (molar enthalpy of mixing); xn = mol fraction of the nth substance listed; details: Liquid, Flow calorimetry
[2] = activity coefficient (dimensionless); of the first substance listed, at infinite dilution; xn = mol fraction of the nth substance listed; details: 101 kPa, Liquid, x1 = 0

CCC(C)(OC)OC [2,2-dimethoxybutane] + c1ccccc1
[1], 303.15 K, 1342 kPa
Details	excess molar enthalpy [kcal/mol]
x2 = 0.0747	0.00416
x2 = 0.1456	0.00676
x2 = 0.213	0.00906
x2 = 0.2772	0.0109
x2 = 0.3383	0.0128
x2 = 0.3966	0.0141
x2 = 0.4523	0.0151
x2 = 0.5056	0.0159
x2 = 0.5565	0.0165
x2 = 0.6053	0.0167
x2 = 0.6521	0.0165
x2 = 0.697	0.0162
x2 = 0.7402	0.0155
x2 = 0.7816	0.0145
x2 = 0.8215	0.0131
x2 = 0.8599	0.0112
x2 = 0.8968	0.00927
x2 = 0.9325	0.00651

CCC(C)(OC)OC [2,2-dimethoxybutane] + C1CCCCC1
[1], 303.15 K, 1204 kPa
Details	excess molar enthalpy [kcal/mol]
x2 = 0.0623	0.0257
x2 = 0.1229	0.0471
x2 = 0.1821	0.0671
x2 = 0.2397	0.0844
x2 = 0.296	0.0985
x2 = 0.3509	0.11
x2 = 0.4045	0.119
x2 = 0.4568	0.125
x2 = 0.5079	0.128
x2 = 0.5578	0.129
x2 = 0.6066	0.128
x2 = 0.6542	0.123
x2 = 0.7008	0.116
x2 = 0.7464	0.107
x2 = 0.791	0.0956
x2 = 0.8346	0.0821
x2 = 0.8773	0.0657
x2 = 0.919	0.0468
x2 = 0.9599	0.0259

C1CCCCC1 [cyclohexane] + CCOC(C)OCC
[2]
Details	activity coefficient
293.08 K	1.76
303.18 K	1.72
313.12 K	1.67
323.14 K	1.64

c1ccccc1 [benzene] + CCOC(C)OCC
[2]
Details	activity coefficient
293.21 K	0.64
303.16 K	0.58
313.11 K	0.56
323.13 K	0.62

CCOC(C)OCC [1,1-diethoxyethane] + c1ccccc1
[1], 323.15 K, 1308 kPa
Details	excess molar enthalpy [kcal/mol]
x2 = 0.0778	-0.00197
x2 = 0.1511	-0.00364
x2 = 0.2204	-0.00483
x2 = 0.286	-0.0057
x2 = 0.3481	-0.00617
x2 = 0.4071	-0.0064
x2 = 0.4631	-0.0064
x2 = 0.5165	-0.00619
x2 = 0.5672	-0.00577
x2 = 0.6157	-0.00527
x2 = 0.6619	-0.0045
x2 = 0.7061	-0.00365
x2 = 0.7484	-0.00277
x2 = 0.7889	-0.00181
x2 = 0.8278	-0.000703
x2 = 0.865	7.17e-06
x2 = 0.9008	0.000676
x2 = 0.9351	0.00116
x2 = 0.9682	0.00114

CCOC(C)OCC [1,1-diethoxyethane] + C1CCCCC1
[1], 323.15 K, 1308 kPa
Details	excess molar enthalpy [kcal/mol]
x2 = 0.0648	0.0271
x2 = 0.1277	0.0506
x2 = 0.1887	0.0712
x2 = 0.2478	0.0882
x2 = 0.3052	0.103
x2 = 0.3609	0.114
x2 = 0.415	0.123
x2 = 0.4676	0.129
x2 = 0.5188	0.132
x2 = 0.5685	0.133
x2 = 0.6169	0.13
x2 = 0.664	0.126
x2 = 0.7099	0.12
x2 = 0.7546	0.111
x2 = 0.7981	0.0986
x2 = 0.8405	0.0849
x2 = 0.8819	0.0681
x2 = 0.9222	0.0481
x2 = 0.9616	0.0261
